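The compound was tested at five concentrations on cells cultured in 96-well plates, with a 48-hour exposure period. Abbreviation: GI50, concentration required for 50% inhibition of growth. TGI marks complete inhibition of growth.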
Columns and labels:
Assay in all cases: inhibition of tumour cell growth, NCI panel, 48 h
SK-MEL-28 melanoma = system: SK-MEL-28 melanoma
KM12 colon = system: KM12 colon
HOP-62 NSCLC = system: HOP-62 NSCLC
SR leukemia = system: SR leukemia
NCI-H23 lung = system: NCI-H23 lung
T-47D breast = system: T-47D breast
ACHN renal = system: ACHN renal
MALME-3M melanoma = system: MALME-3M melanoma
BT-549 breast = system: BT-549 breast
SK-OV-3 ovarian = system: SK-OV-3 ovarian
UO-31 renal = system: UO-31 renal
SNB-75 CNS = system: SNB-75 CNS
SNB-19 CNS = system: SNB-19 CNS
SF-268 CNS = system: SF-268 CNS
IGROV1 ovarian = system: IGROV1 ovarian
PC-3 prostate = system: PC-3 prostate
OVCAR-4 ovarian = system: OVCAR-4 ovarian
MDA-MB-435 = system: MDA-MB-435
K-562 leukemia = system: K-562 leukemia
SK-MEL-5 melanoma = system: SK-MEL-5 melanoma
SW-620 colon = system: SW-620 colon
RXF 393 renal = system: RXF 393 renal
A498 renal = system: A498 renal
U251 CNS = system: U251 CNS
M14 melanoma = system: M14 melanoma
SN12C renal = system: SN12C renal
UACC-62 melanoma = system: UACC-62 melanoma
NCI-H226 lung = system: NCI-H226 lung
EKVX NSCLC = system: EKVX NSCLC
CCRF-CEM leukemia = system: CCRF-CEM leukemia
DU-145 prostate = system: DU-145 prostate
786-0 renal = system: 786-0 renal
NCI/ADR-RES ovarian = system: NCI/ADR-RES ovarian
SF-539 CNS = system: SF-539 CNS
SK-MEL-2 melanoma = system: SK-MEL-2 melanoma
COLO 205 colon = system: COLO 205 colon
A549 NSCLC = system: A549 NSCLC
OVCAR-8 ovarian = system: OVCAR-8 ovarian
HS 578T breast = system: HS 578T breast
NCI-H460 lung = system: NCI-H460 lung
TK-10 renal = system: TK-10 renal
CAKI-1 renal = system: CAKI-1 renal
UACC-257 melanoma = system: UACC-257 melanoma
LOX IMVI melanoma = system: LOX IMVI melanoma
HL-60(TB) leukemia = system: HL-60(TB) leukemia
RPMI-8226 leukemia = system: RPMI-8226 leukemia
SF-295 CNS = system: SF-295 CNS
HCC-2998 colon = system: HCC-2998 colon
NCI-H522 lung = system: NCI-H522 lung
OVCAR-5 ovarian = system: OVCAR-5 ovarian
HCT-116 colon = system: HCT-116 colon
MCF7 breast = system: MCF7 breast
HOP-92 NSCLC = system: HOP-92 NSCLC
HCT-15 colon = system: HCT-15 colon
OVCAR-3 ovarian = system: OVCAR-3 ovarian
MOLT-4 leukemia = system: MOLT-4 leukemia
MDA-MB-231 breast = system: MDA-MB-231 breast
HT29 colon = system: HT29 colon

In the case of `Cn1cc(-c2csc(-c3c[nH]c4ccc(F)cc34)n2)c2cccnc21`, the GI50 (SK-MEL-28 melanoma) is reported as 11.4 µM, the TGI (SK-MEL-28 melanoma) is reported as greater than 100 µM and the GI50 (KM12 colon) is reported as 0.704 µM. It also gave a TGI (KM12 colon) greater than 100 µM, a GI50 (HOP-62 NSCLC) of 3.11 µM and a TGI (HOP-62 NSCLC) of 35.2 µM. The GI50 (SR leukemia) was 0.57 µM, the TGI (SR leukemia) was greater than 81.2 µM and the GI50 (NCI-H23 lung) was 11.9 µM. It also gave a TGI (NCI-H23 lung) greater than 100 µM, a GI50 (T-47D breast) of 2.33 µM and a TGI (T-47D breast) greater than 73.2 µM. It also gave a GI50 (ACHN renal) of 8.87 µM, a TGI (ACHN renal) greater than 100 µM and a GI50 (MALME-3M melanoma) of 0.236 µM. For the same compound, the TGI (MALME-3M melanoma) was 8.35 µM, the TGI (BT-549 breast) was greater than 100 µM and the GI50 (SK-OV-3 ovarian) was 10.5 µM. For the same compound, the TGI (SK-OV-3 ovarian) was greater than 74.8 µM, the GI50 (UO-31 renal) was 5.37 µM and the TGI (UO-31 renal) was 32.2 µM. It also gave a GI50 (SNB-75 CNS) of 2.61 µM, a TGI (SNB-75 CNS) of 40 µM and a GI50 (SNB-19 CNS) of 6.25 µM. The TGI (SNB-19 CNS) was 65.7 µM, the GI50 (SF-268 CNS) was 7.73 µM and the TGI (SF-268 CNS) was greater than 93.6 µM. It also gave a GI50 (IGROV1 ovarian) of 0.804 µM, a TGI (IGROV1 ovarian) greater than 39.9 µM and a GI50 (PC-3 prostate) of 6.94 µM. The TGI (PC-3 prostate) was greater than 60.3 µM, the GI50 (OVCAR-4 ovarian) was 12.3 µM and the TGI (OVCAR-4 ovarian) was greater than 100 µM. For the same compound, the GI50 (MDA-MB-435) was 0.194 µM, the TGI (MDA-MB-435) was 0.586 µM and the GI50 (K-562 leukemia) was 0.416 µM. The TGI (K-562 leukemia) was greater than 100 µM, the GI50 (SK-MEL-5 melanoma) was 1.27 µM and the TGI (SK-MEL-5 melanoma) was greater than 45.3 µM. The GI50 (SW-620 colon) was 0.749 µM, the TGI (SW-620 colon) was greater than 100 µM and the GI50 (RXF 393 renal) was 5.65 µM. It also gave a TGI (RXF 393 renal) greater than 70.5 µM, a GI50 (A498 renal) of 18.6 µM and a TGI (A498 renal) greater than 100 µM. It also gave a GI50 (U251 CNS) of 1.52 µM, a TGI (U251 CNS) of 17 µM and a GI50 (M14 melanoma) of 0.787 µM. The TGI (M14 melanoma) was greater than 100 µM, the GI50 (SN12C renal) was 10.8 µM and the TGI (SN12C renal) was greater than 100 µM. The GI50 (UACC-62 melanoma) was 1.98 µM, the TGI (UACC-62 melanoma) was greater than 100 µM and the GI50 (NCI-H226 lung) was 5.22 µM. It also gave a TGI (NCI-H226 lung) greater than 100 µM, a GI50 (EKVX NSCLC) of 8.87 µM and a TGI (EKVX NSCLC) greater than 100 µM. The GI50 (CCRF-CEM leukemia) was 6.26 µM, the TGI (CCRF-CEM leukemia) was greater than 100 µM and the GI50 (DU-145 prostate) was 14.3 µM. The TGI (DU-145 prostate) was greater than 100 µM, the GI50 (786-0 renal) was 13.9 µM and the TGI (786-0 renal) was greater than 68.4 µM. The GI50 (NCI/ADR-RES ovarian) was 0.45 µM, the TGI (NCI/ADR-RES ovarian) was greater than 100 µM and the GI50 (SF-539 CNS) was 5.41 µM. The TGI (SF-539 CNS) was greater than 59.5 µM, the GI50 (SK-MEL-2 melanoma) was 2.78 µM and the TGI (SK-MEL-2 melanoma) was greater than 29.5 µM. For the same compound, the GI50 (COLO 205 colon) was 1.22 µM, the TGI (COLO 205 colon) was greater than 56.4 µM and the GI50 (A549 NSCLC) was 1.09 µM. It also gave a TGI (A549 NSCLC) greater than 45.4 µM, a GI50 (OVCAR-8 ovarian) of 2.99 µM and a TGI (OVCAR-8 ovarian) of 47.3 µM. It also gave a GI50 (HS 578T breast) greater than 56.6 µM, a TGI (HS 578T breast) greater than 100 µM and a GI50 (NCI-H460 lung) of 0.612 µM. It also gave a TGI (NCI-H460 lung) greater than 47.4 µM, a GI50 (TK-10 renal) of 5.08 µM and a TGI (TK-10 renal) of 31.6 µM. The GI50 (CAKI-1 renal) was 1.42 µM, the TGI (CAKI-1 renal) was greater than 60.8 µM and the GI50 (UACC-257 melanoma) was 3.81 µM. It also gave a TGI (UACC-257 melanoma) greater than 100 µM, a GI50 (LOX IMVI melanoma) of 1.45 µM and a TGI (LOX IMVI melanoma) greater than 100 µM. For the same compound, the GI50 (HL-60(TB) leukemia) was 5.85 µM, the TGI (HL-60(TB) leukemia) was greater than 100 µM and the GI50 (RPMI-8226 leukemia) was greater than 25.4 µM. The TGI (RPMI-8226 leukemia) was greater than 100 µM, the GI50 (SF-295 CNS) was 0.755 µM and the TGI (SF-295 CNS) was 27 µM. For the same compound, the GI50 (HCC-2998 colon) was 21.9 µM, the TGI (HCC-2998 colon) was greater than 100 µM and the GI50 (NCI-H522 lung) was 0.463 µM. It also gave a TGI (NCI-H522 lung) of 14.7 µM, a GI50 (OVCAR-5 ovarian) greater than 69.3 µM and a TGI (OVCAR-5 ovarian) greater than 100 µM. For the same compound, the GI50 (HCT-116 colon) was 0.729 µM, the TGI (HCT-116 colon) was greater than 100 µM and the GI50 (MCF7 breast) was 1.69 µM. It also gave a TGI (MCF7 breast) greater than 68.4 µM, a GI50 (HOP-92 NSCLC) of 4.25 µM and a TGI (HOP-92 NSCLC) greater than 48.9 µM. For the same compound, the GI50 (HCT-15 colon) was 0.737 µM, the TGI (HCT-15 colon) was greater than 100 µM and the GI50 (OVCAR-3 ovarian) was 0.62 µM. The TGI (OVCAR-3 ovarian) was 17.5 µM, the GI50 (MOLT-4 leukemia) was 10.6 µM and the TGI (MOLT-4 leukemia) was greater than 100 µM. For the same compound, the GI50 (MDA-MB-231 breast) was 5.79 µM, the TGI (MDA-MB-231 breast) was greater than 100 µM and the GI50 (HT29 colon) was 0.355 µM. For the same compound, the TGI (HT29 colon) was 3.66 µM.

— PubChem BioAssay (NCI)
